Test results from US20230024108A1, “ADENOSINE A2A RECEPTOR ANTAGONISTS” (Teon Therapeutics, Inc., priority 2019, published 2023).

Key:
human A2A AdoR = biological target: T1, human A2A AdoR (Homo sapiens, UniProt P29274); experiment: Adenosine receptor binding assay, A2A ([3H]-CGS-21680); conditions: membranes of HEK-293 cells expressing human A2A AdoR; read-out: hA2A IC50
T1 construct: purchased PerkinElmer RBHA2AM400UA
Method: (§1) Membranes prepared from CHO-K1 cells stably expressing Human AiAdoR (ES-010-M400UA), HEK-293 cells stably expressing human A2A AdoR (RBHA2AM400UA), HEK-293 cells stably expressing human A2B AdoR (ES-013-M400UA) and CHO-K1 cells stably expressing Human A3 AdoR (ES-012-M400UA) were purchased from PerkinElmer (Waltham, Mass., USA) and stored at −80° C. until use. Binding assays are performed using the radioligands. The final concentrations are as follows: [3H]-DPCPX (PerkinElmer, NET974001MC) at 1 nM for A1AdoR; [^3H]-CGS-21680 (PerkinElmer, NET1021250UC) at 6 nM for A2AAdoR, [3H]-DPCPX (PerkinElmer, NET974001MC) at 8 nM for A2BAdoR; [^3H]-HEMADO (ARC, Cat: ART1456) at 1 nM for A3AdoR. Testing compounds are diluted with DMSO to make 8-point 4-fold serial dilution. Nonspecific binding (Low control: LC) and total binding (High control: HC) are determined in the presence or absence of saturated cold ligand. Specific binding is calculated by subtracting nonspecific binding from total binding. All assays are performed in a final volume of 200 μl containing 1 μl of the test compound in DMSO, 100 μl of membrane preparation, and 99 μl of the radioligand in assay buffer (A1AdoR: 25 mM HEPES pH 7.4, 5 mM MgCl2, 1 mM CaCl2), 100 mM NaCl; A2AAdoR: 50 mM Tris HCl pH 7.4, 10 mM MgCl2, 1 mM EDTA; A2BAdoR: 50 mM HEPES pH 7.0, 5 mM MgCl2, 1 mM EDTA; A3AdoR: 25 HEPES pH 7.4, 10 mM MgCl2, 1 mM CaCl2), 0.5% BSA). The incubation is performed at room temperature with shaking at 300 rpm for 1 hour for A1AdoR, A2BAdoR and A3AdoR and 2 hours for A2AAdoR. After the incubation, the assay mixture is filtered through 96 GF/C filter plates (Perkin Elmer #6005174) using Perkin Elmer Filtermate Harvester, and then washed four times with ice-cold washing buffer (A1AdoR: 25 mM HEPES pH 7.4, 5 mM MgCl2, 1 mM CaCl2), 100 mM NaCl; A2AAdoR: 50 mM Tris HCl pH 7.4, 154 mM NaCl; A2BAdoR: 50 mM HEPES pH 6.5, 5 mM MgCl2, 1 mM EDTA, 0.2% BSA; A3AdoR: 50 mM Tris HCl pH 7.4). The filters are dried for 1 hour at 50° C. and [^3H] trapped on filter counted for radioactivity in Perkin Elmer Microscint 20 cocktail (#6013329) using Perkin Elmer MicroBeta2 Reader. The results are expressed as a percent inhibition of the control radioligand specific binding calculated using the following equation: % Inhibition=(1−(Assay well-Average_LC)/(Average_HC−Average_LC))×100%. Data are analyzed and IC50 is calculated using GraphPad Prism 5 and the model “log(inhibitor) vs. response—Variable slope”. The binding affinity of the compounds is determined by using the Cheng and Prusoff equation Ki=IC50/(1+[radioligand]/Kd).

A1AdoR = biological target: T2, A1AdoR (Homo sapiens, UniProt P30542); experiment: Adenosine receptor binding assay, A1 ([3H]-DPCPX); conditions: ratio A1 vs A2A binding
T2 construct: purchased PerkinElmer ES-010-M400UA
T2 sequence (P30542 1-326): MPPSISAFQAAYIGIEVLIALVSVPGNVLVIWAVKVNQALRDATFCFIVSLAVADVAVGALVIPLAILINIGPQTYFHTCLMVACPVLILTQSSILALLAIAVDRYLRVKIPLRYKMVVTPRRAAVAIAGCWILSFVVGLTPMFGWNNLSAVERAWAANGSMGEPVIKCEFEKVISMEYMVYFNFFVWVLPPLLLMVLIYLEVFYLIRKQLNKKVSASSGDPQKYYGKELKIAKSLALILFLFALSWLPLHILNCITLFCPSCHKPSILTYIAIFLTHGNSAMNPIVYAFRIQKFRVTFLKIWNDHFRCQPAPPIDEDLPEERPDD
Method: as §1

T1 sequence (P29274 whole entry): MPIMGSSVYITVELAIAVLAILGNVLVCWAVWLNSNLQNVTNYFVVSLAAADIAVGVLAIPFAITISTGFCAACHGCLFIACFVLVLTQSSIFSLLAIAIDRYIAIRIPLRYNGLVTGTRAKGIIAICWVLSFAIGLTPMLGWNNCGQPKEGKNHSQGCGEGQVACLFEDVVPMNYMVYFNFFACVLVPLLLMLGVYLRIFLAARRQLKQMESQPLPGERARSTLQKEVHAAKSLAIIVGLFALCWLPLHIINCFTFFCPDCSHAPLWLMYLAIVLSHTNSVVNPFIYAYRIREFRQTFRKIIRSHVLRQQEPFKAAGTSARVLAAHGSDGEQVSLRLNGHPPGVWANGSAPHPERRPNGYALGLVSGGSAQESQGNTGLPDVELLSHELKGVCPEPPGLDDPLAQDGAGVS

IC50 (human A2A AdoR) [nM] | Compound | A1/A2A Selectivity (A1AdoR)
≤ 20 | CC#Cc1nc2c3ncn(CCN4CCN(c5cc6c(C)noc6cc5F)CC4)c3nc(N)n2n1 [3-(2-(4-(6-fluoro-3-methylbenzo[d]isoxazol-5-yl)piperazin-1-yl)ethyl)-8-(prop-1-yn-1-yl)-3H-[1,2,4]triazolo[5,1-i]purin-5-amine] | a (greater than 1000)
> 100 | Cc1noc2cc(F)c(N3CCCN(CCn4c(C(=O)O)c(Cl)c5c4nc(N)n4nc(-c6ccccn6)nc54)CC3)cc12 [5-amino-9-chloro-7-(2-(4-(6-fluoro-3-methylbenzo[d]isoxazol-5-yl)-1,4-diazepan-1-yl)ethyl)-2-(pyridin-2-yl)-7H-pyrrolo[3,2-e][1,2,4]triazolo[1,5-c]pyrimidine-8-carboxylic acid] | c (greater than 0 but less than or equal to 100)
≤ 20 | Cc1c(C(=O)O)n(CCN2CCN(c3ccc(C#N)cc3F)CC2)c2nc(N)n3nc(-c4ccccn4)nc3c12 [5-amino-7-(2-(4-(4-cyano-2-fluorophenyl)piperazin-1-yl)ethyl)-9-methyl-2-(pyridin-2-yl)-7H-pyrrolo[3,2-e][1,2,4]triazolo[1,5-c]pyrimidine-8-carboxylic acid] | b (greater than 100 but less than or equal to 1000)
20 to 100 | Nc1nc2c(c(Cl)c(C(=O)O)n2CCN2CCN(c3ncccn3)CC2)c2nc(-c3ccccn3)nn12 [5-amino-9-chloro-2-(pyridin-2-yl)-7-(2-(4-(pyrimidin-2-yl)piperazin-1-yl)ethyl)-7H-pyrrolo[3,2-e][1,2,4]triazolo[1,5-c]pyrimidine-8-carboxylic acid] | c (greater than 0 but less than or equal to 100)
≤ 20 | N#Cc1ccc(N2CCN(CCn3c(C(N)=O)c(Cl)c4c3nc(N)n3nc(-c5ccccn5)nc43)CC2)c(F)c1 [5-amino-9-chloro-7-(2-(4-(4-cyano-2-fluorophenyl)piperazin-1-yl)ethyl)-2-(pyridin-2-yl)-7H-pyrrolo[3,2-e][1,2,4]triazolo[1,5-c]pyrimidine-8-carboxamide] | a (greater than 1000)
≤ 20 | Cc1cc(N2CCN(CCn3c(C(=O)O)c(Cl)c4c3nc(N)n3nc(-c5ccccn5)nc43)CC2)c(F)cn1 [5-amino-9-chloro-7-(2-(4-(5-fluoro-2-methylpyridin-4-yl)piperazin-1-yl)ethyl)-2-(pyridin-2-yl)-7H-pyrrolo[3,2-e][1,2,4]triazolo[1,5-c]pyrimidine-8-carboxylic acid] | a (greater than 1000)
≤ 20 | Cc1noc2cc(F)c(N3CCN(CCn4c(C(=O)O)c(C)c5c4nc(N)n4nc(-c6ccccn6)nc54)CC3)cc12 | b (greater than 100 but less than or equal to 1000)
≤ 20 | 2-(4-(4-(2-(5-amino-8-(methoxycarbonyl)-9-methyl-2-(pyridin-2-yl)-7H-pyrrolo[3,2-e][1,2,4]triazolo[1,5-c]pyrimidin-7-yl)ethyl)piperazin-1-yl)phenoxy)acetic acid | b (greater than 100 but less than or equal to 1000)
≤ 20 | NC(=O)c1c(Cl)c2c(nc(N)n3nc(-c4ccccn4)nc23)n1CCN1CCN(c2ccc(OCC(=O)O)cc2)CC1 [2-(4-(4-(2-(5-amino-8-carbamoyl-9-chloro-2-(pyridin-2-yl)-7H-pyrrolo[3,2-e][1,2,4]triazolo[1,5-c]pyrimidin-7-yl)ethyl)piperazin-1-yl)phenoxy)acetic acid] | b (greater than 100 but less than or equal to 1000)
≤ 20 | Cc1c(C(=O)O)n(CCN2CCN(c3ncccn3)CC2)c2nc(N)n3nc(-c4ccccn4)nc3c12 [5-amino-9-methyl-2-(pyridin-2-yl)-7-(2-(4-(pyrimidin-2-yl)piperazin-1-yl)ethyl)-7H-pyrrolo[3,2-e][1,2,4]triazolo[1,5-c]pyrimidine-8-carboxylic acid] | b (greater than 100 but less than or equal to 1000)
≤ 20 | COC(=O)c1c(C)c2c(nc(N)n3nc(-c4ccccn4)nc23)n1CCN1CCN(c2cc(C)ncc2F)CC1 [methyl 5-amino-7-(2-(4-(5-fluoro-2-methylpyridin-4-yl)piperazin-1-yl)ethyl)-9-methyl-2-(pyridin-2-yl)-7H-pyrrolo[3,2-e][1,2,4]triazolo[1,5-c]pyrimidine-8-carboxylate] | a (greater than 1000)
≤ 20 | Cc1c(C(N)=O)n(CCN2CCN(c3ncccn3)CC2)c2nc(N)n3nc(-c4ccccn4)nc3c12 [5-amino-9-methyl-2-(pyridin-2-yl)-7-(2-(4-(pyrimidin-2-yl)piperazin-1-yl)ethyl)-7H-pyrrolo[3,2-e][1,2,4]triazolo[1,5-c]pyrimidine-8-carboxamide] | b (greater than 100 but less than or equal to 1000)
≤ 20 | CC(C)(Oc1ccc(N2CCN(CCn3cnc4c3nc(N)n3nc(-c5ccccn5)nc43)CC2)c(F)c1)C(=O)O [2-(4-(4-(2-(5-amino-8-(pyridin-2-yl)-3H-[1,2,4]triazolo[5,1-i]purin-3-yl)ethyl)piperazin-1-yl)-3-fluorophenoxy)-2-methylpropanoic acid] | b (greater than 100 but less than or equal to 1000)
≤ 20 | CNC(=O)c1c(C)c2c(nc(N)n3nc(-c4ccccn4)nc23)n1CCN1CCCN(c2cc(-c3ncco3)ccc2F)CC1 [5-amino-7-(2-(4-(2-fluoro-5-(oxazol-2-yl)phenyl)-1,4-diazepan-1-yl)ethyl)-N,9-dimethyl-2-(pyridin-2-yl)-7H-pyrrolo[3,2-e][1,2,4]triazolo[1,5-c]pyrimidine-8-carboxamide] | b (greater than 100 but less than or equal to 1000)
≤ 20 | Nc1nc2c(c(Cl)c(C(=O)NC3CC3)n2CCN2CCN(c3cc(-c4ncco4)ccc3F)CC2)c2nc(-c3ccccn3)nn12 | a (greater than 1000)
≤ 20 | Cc1cc(N2CCN(CCn3c(C(N)=O)c(C)c4c3nc(N)n3nc(-c5ccccn5)nc43)CC2)c(F)cn1 [5-amino-7-(2-(4-(5-fluoro-2-methylpyridin-4-yl)piperazin-1-yl)ethyl)-9-methyl-2-(pyridin-2-yl)-7H-pyrrolo[3,2-e][1,2,4]triazolo[1,5-c]pyrimidine-8-carboxamide] | c (greater than 0 but less than or equal to 100)
≤ 20 | Cc1noc2cc(F)c(N3CCN(CCn4c(C(N)=O)c(C)c5c4nc(N)n4nc(-c6ccccn6)nc54)CC3)cc12 [5-amino-7-(2-(4-(6-fluoro-3-methylbenzo[d]isoxazol-5-yl)piperazin-1-yl)ethyl)-9-methyl-2-(pyridin-2-yl)-7H-pyrrolo[3,2-e][1,2,4]triazolo[1,5-c]pyrimidine-8-carboxamide] | a (greater than 1000)
≤ 20 | NC(=O)c1c(Cl)c2c(nc(N)n3nc(-c4ccccn4)nc23)n1CCN1CCN(c2ccc(F)cc2F)CC1 | c (greater than 0 but less than or equal to 100)
